According to patent US20100016293A1, “Quinazolines and Related Heterocyclic Compounds, and Their Therapeutic Use” (priority 2006, published 2010):

Target: T1, human H4 receptor (Homo sapiens, UniProt Q9H3N8)
T1 construct: expressed in transfected cells; host or cells: HEK 293T cells, transient transfection with polyethyleneimine
Test: Radioligand displacement studies at the human H4 receptor ([3H]histamine)
Format: binding
Conditions: [3H]histamine displacement, membranes of HEK 293T cells transfected with human H4R, 1 hour at 22° C.
Method: Radioligand displacement studies at the human H4 receptor were conducted. […] Approximately 4 million cells were seeded in a 10-cm dish and cultured overnight before transfection. For transfection of each dish of cells, the transfection mixture was prepared in 1 ml serum-free DMEM and contained 5 μg of human H4R receptor plasmid and 15 μl of 1 mg/ml 25 kDa linear polyethyleneimine (Polyscience, Inc., USA). The mixture was incubated for 10-15 minutes at room temperature before it was added into the monoloyer cell culture loaded with 5 ml fresh cell culture medium. Two days after transfection the cells were washed with PBS containing 1 mM EDTA, collected as pellet by centrifuging, and stored at −20° C. until use.
For the radioligand binding study, pellets of transfected cells were homogenized in H4R binding buffer (100 mM Tris-HCl, pH 7.4). For displacement binding assays, the membranes were typically incubated with 10^−4 to 10^−11 M of ligands (stock concentration was 10 mM 1 DMSO) in the presence of [^3H]histamine (Perkin-Elmer Life Science, Inc., USA) in a total volume of 200 μl. The reaction mixtures were incubated for 1 hour at room temperature (22° C.), and harvested on 96-well glass fiber C plates that were pretreated with 0.3% 750 kDa PEI. The binding assay data were analyzed using Prism 4.0 (Graphpad Software Inc., USA).

Ki [nM] | SMILES
< 1000 | CN1CCN(c2nc(NCc3ccc(C#N)cc3)c3cc(Cl)ccc3n2)CC1 [VUF10553, 4-((6-Chloro-2-(4-methylpiperazin-1-yl)quinazolin-4-ylamino)methyl)benzonitrile]
< 1000 | CCOC(=O)CNc1nc(N2CCN(C)CC2)nc2ccc(Cl)cc12 [VUF10456, Ethyl 2-(6-chloro-2-(4-methylpiperazin-1-yl)quinazolin-4-ylamino)acetate]
< 1000 | CN1CCN(c2nc(NCc3ccc(F)cc3)c3cc(Cl)ccc3n2)CC1 [VUF10513, 6-Chloro-N-(4-fluorobenzyl)-2-(4-methylpiperazin-1-yl)quinazolin-4-amine]
< 1000 | CN1CCN(c2nc(NCc3ccc(N)cc3)c3cc(Cl)ccc3n2)CC1 [VUF10509, N-(4-aminobenzyl)-6-chloro-2-(4-methylpiperazin-1-yl)quinazolin-4-amine]
< 1000 | CN1CCN(c2nc(NCCc3ccc([N+](=O)[O-])cc3)c3cc(Cl)ccc3n2)CC1 [VUF10506, 6-Chloro-2-(4-methylpiperazin-1-yl)-N-(4-nitrophenethyl)quinazolin-4-amine]
< 1000 | COc1ccc(CNc2nc(N3CCN(C)CC3)nc3ccc(Cl)cc23)cc1 [VUF10505, 6-Chloro-N-(4-methoxybenzyl)-2-(4-methylpiperazin-1-yl)quinazolin-4-amine]

SMILES | Ki [nM]
CN1CCN(c2ccc3cc(Cl)ccc3n2)CC1 [VUF6959, 6-Chloro-2-(4-methyl-piperazinyl)-quinoline] | < 1000
